Measurements as given in ChEMBL document CHEMBL1201862, “PubChem BioAssay data set” (2004).
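Following 48 hours of exposure in 96-well plates, responses at five concentrations were used to interpolate endpoints linearly. GI50 = concentration required for 50% inhibition of growth.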 The source made the active and inactive calls. Cut-off read from the data, not from the text of the source: active = GI50 up to about 1.1 µM and inactive = higher.

Key:
Test in all cases: DTP human tumour cell line panel, 48 h
MDA-N = tested on: MDA-N
EKVX = tested on: EKVX
HCT-15 = tested on: HCT-15
NCI/ADR-RES = tested on: NCI/ADR-RES
BT-549 = tested on: BT-549
SK-MEL-2 = tested on: SK-MEL-2
UO-31 = tested on: UO-31
A549 = tested on: A549
TK-10 = tested on: TK-10
UACC-257 = tested on: UACC-257
SF-268 = tested on: SF-268
Hs-578T = tested on: Hs-578T
SNB-19 = tested on: SNB-19
HL-60 = tested on: HL-60
OVCAR-8 = tested on: OVCAR-8
UACC-62 = tested on: UACC-62
RPMI-8226 = tested on: RPMI-8226
HOP-62 = tested on: HOP-62
SR = tested on: SR
OVCAR-5 = tested on: OVCAR-5
NCI-H23 = tested on: NCI-H23
SW-620 = tested on: SW-620
T47D = tested on: T47D
CAKI-1 = tested on: CAKI-1
SN12C = tested on: SN12C
786-0 = tested on: 786-0
MOLT-4 = tested on: MOLT-4
OVCAR-4 = tested on: OVCAR-4
M14 = tested on: M14
SK-OV-3 = tested on: SK-OV-3
PC-3 = tested on: PC-3
MCF7 = tested on: MCF7
COLO 205 = tested on: COLO 205
HCT-116 = tested on: HCT-116
SK-MEL-5 = tested on: SK-MEL-5
ACHN = tested on: ACHN
HOP-92 = tested on: HOP-92
SF-295 = tested on: SF-295
K562 = tested on: K562
NCI-H460 = tested on: NCI-H460
IGROV-1 = tested on: IGROV-1
HCC 2998 = tested on: HCC 2998
CCRF-CEM = tested on: CCRF-CEM
A498 = tested on: A498
NCI-H226 = tested on: NCI-H226
KM12 = tested on: KM12
SF-539 = tested on: SF-539
DU-145 = tested on: DU-145
SNB-75 = tested on: SNB-75
U-251 = tested on: U-251
MDA-MB-231 = tested on: MDA-MB-231
Malme-3M = tested on: Malme-3M
LOX IMVI = tested on: LOX IMVI
NCI-H522 = tested on: NCI-H522
SK-MEL-28 = tested on: SK-MEL-28
OVCAR-3 = tested on: OVCAR-3
MDA-MB-435 = tested on: MDA-MB-435
RXF 393 = tested on: RXF 393
HT-29 = tested on: HT-29
SNB-78 = tested on: SNB-78
M19-MEL = tested on: M19-MEL
KM-20L2 = tested on: KM-20L2
DMS-114 = tested on: DMS-114
LXFL 529 = tested on: LXFL 529

Compound: COC1(CC[C@H](C)COC2OC(CO)C(O)C(O)C2O)O[C@H]2C[C@H]3[C@@H]4CC=C5C[C@@H](OC6OC(CO)C(O)C(OC7OC(CO)C(O)C(O)C7O)C6OC6OC(C)C(O)C(O)C6O)CC[C@]5(C)[C@H]4CC[C@]3(C)[C@H]2[C@@H]1C (stereo not given in full)
- GI50 (MDA-N): 8.81 µM (inactive)
- GI50 (EKVX): 15.9 µM (inactive)
- GI50 (HCT-15): 2.96 µM
- GI50 (NCI/ADR-RES): 9.44 µM (inactive)
- GI50 (BT-549): 7.6 µM (inactive)
- GI50 (SK-MEL-2): 8.77 µM (inactive)
- GI50 (UO-31): 2.14 µM (inactive)
- GI50 (A549): 2.73 µM (inactive)
- GI50 (TK-10): 21.2 µM (inactive)
- GI50 (UACC-257): 5.73 µM (inactive)
- GI50 (SF-268): 4.89 µM (inactive)
- GI50 (Hs-578T): 11 µM (inactive)
- GI50 (SNB-19): 7.31 µM (inactive)
- GI50 (HL-60): 3.12 µM (inactive)
- GI50 (OVCAR-8): 3.03 µM (inactive)
- GI50 (UACC-62): 3.7 µM (inactive)
- GI50 (RPMI-8226): 2.54 µM (inactive)
- GI50 (HOP-62): 5.51 µM (inactive)
- GI50 (SR): > 100 µM (inactive)
- GI50 (OVCAR-5): 6.07 µM (inactive)
- GI50 (NCI-H23): 6.52 µM (inactive)
- GI50 (SW-620): 2.81 µM (inactive)
- GI50 (T47D): 2.61 µM (inactive)
- GI50 (CAKI-1): 5.45 µM (inactive)
- GI50 (SN12C): 5.41 µM (inactive)
- GI50 (786-0): 2.32 µM (inactive)
- GI50 (MOLT-4): 3.15 µM (inactive)
- GI50 (OVCAR-4): 5.28 µM (inactive)
- GI50 (M14): 2.84 µM (inactive)
- GI50 (SK-OV-3): 12.1 µM (inactive)
- GI50 (PC-3): 4.3 µM (inactive)
- GI50 (MCF7): 9.2 µM (inactive)
- GI50 (COLO 205): 4.08 µM (inactive)
- GI50 (HCT-116): 4.5 µM (inactive)
- GI50 (SK-MEL-5): 5.27 µM (inactive)
- GI50 (ACHN): 13.3 µM (inactive)
- GI50 (HOP-92): 3.37 µM (inactive)
- GI50 (SF-295): 3.3 µM (inactive)
- GI50 (K562): 4.88 µM (inactive)
- GI50 (NCI-H460): 3.62 µM (inactive)
- GI50 (IGROV-1): 3.73 µM (inactive)
- GI50 (HCC 2998): 4.86 µM (inactive)
- GI50 (CCRF-CEM): 3.17 µM (inactive)
- GI50 (A498): 17.8 µM (inactive)
- GI50 (NCI-H226): 6.49 µM (inactive)
- GI50 (KM12): 1.98 µM (inactive)
- GI50 (SF-539): 2.17 µM (inactive)
- GI50 (DU-145): 2 µM (inactive)
- GI50 (SNB-75): 2.55 µM (inactive)
- GI50 (U-251): 2.12 µM (inactive)
- GI50 (MDA-MB-231): 3.7 µM (inactive)
- GI50 (Malme-3M): 2.5 µM (inactive)
- GI50 (LOX IMVI): 2.68 µM (inactive)
- GI50 (NCI-H522): 2.94 µM (inactive)
- GI50 (SK-MEL-28): 2.31 µM (inactive)
- GI50 (OVCAR-3): 16.7 µM (inactive)
- GI50 (MDA-MB-435): 1.87 µM (inactive)
- GI50 (RXF 393): 4.24 µM (inactive)
- GI50 (HT-29): 4.57 µM (inactive)

Compound: COC(=O)C(Cc1ccccc1)/N=C/c1c(O)c(O)c(C(C)C)c2cc(C)c(-c3c(C)cc4c(C(C)C)c(O)c(O)c(/C=N/C(Cc5ccccc5)C(=O)OC)c4c3O)c(O)c12 (stereo not given)
- GI50 (SK-MEL-2): 20.9 µM (inactive)
- GI50 (UO-31): 22.3 µM (inactive)
- GI50 (SNB-78): 6.21 µM (inactive)
- GI50 (UACC-257): 21.6 µM (inactive)
- GI50 (SF-268): 29.5 µM (inactive)
- GI50 (SNB-19): 31.8 µM (inactive)
- GI50 (HL-60): 18.9 µM (inactive)
- GI50 (UACC-62): 22.5 µM (inactive)
- GI50 (RPMI-8226): 22.4 µM (inactive)
- GI50 (HOP-62): 31.8 µM (inactive)
- GI50 (SR): 2.36 µM (inactive)
- GI50 (OVCAR-5): 15.5 µM (inactive)
- GI50 (NCI-H23): 26.4 µM (inactive)
- GI50 (M19-MEL): 36.8 µM (inactive)
- GI50 (MOLT-4): 2.38 µM (inactive)
- GI50 (OVCAR-4): 21.3 µM (inactive)
- GI50 (M14): > 10 µM (inactive)
- GI50 (SK-OV-3): 23.7 µM (inactive)
- GI50 (COLO 205): 30.3 µM (inactive)
- GI50 (KM-20L2): 20 µM (inactive)
- GI50 (HCT-116): > 10 µM (inactive)
- GI50 (DMS-114): > 10 µM (inactive)
- GI50 (ACHN): 32.1 µM (inactive)
- GI50 (HOP-92): 23.8 µM (inactive)
- GI50 (SF-295): 15.8 µM (inactive)
- GI50 (K562): 18.7 µM (inactive)
- GI50 (NCI-H460): 23 µM (inactive)
- GI50 (IGROV-1): 28.7 µM (inactive)
- GI50 (CCRF-CEM): 7.82 µM (inactive)
- GI50 (KM12): 16.1 µM (inactive)
- GI50 (SF-539): 17 µM (inactive)
- GI50 (SNB-75): 67.9 µM (inactive)
- GI50 (U-251): 17.3 µM (inactive)
- GI50 (Malme-3M): 40.6 µM (inactive)
- GI50 (LXFL 529): 18 µM (inactive)
- GI50 (NCI-H522): 21.6 µM (inactive)
- GI50 (SK-MEL-28): 28.8 µM (inactive)
- GI50 (OVCAR-3): 17 µM (inactive)
- GI50 (RXF 393): 15 µM (inactive)
- GI50 (HT-29): 17.6 µM (inactive)

Compound: CCN(CC)CCN1C(=O)CC2[C@@H]3CCc4cc(OC)ccc4C3CC[C@]2(C)C1=O (stereo not given in full)
- GI50 (SK-MEL-2): 20.9 µM (inactive)
- GI50 (UO-31): 17.4 µM (inactive)
- GI50 (SNB-78): 28.5 µM (inactive)
- GI50 (UACC-257): 14.9 µM (inactive)
- GI50 (SF-268): 38.5 µM (inactive)
- GI50 (SNB-19): > 100 µM (inactive)
- GI50 (HL-60): 16.8 µM (inactive)
- GI50 (UACC-62): 19.3 µM (inactive)
- GI50 (RPMI-8226): 21.7 µM (inactive)
- GI50 (HOP-62): 25.2 µM (inactive)
- GI50 (SR): > 10 µM (inactive)
- GI50 (OVCAR-5): 32.5 µM (inactive)
- GI50 (NCI-H23): 91.2 µM (inactive)
- GI50 (M19-MEL): 18.7 µM (inactive)
- GI50 (786-0): 17.3 µM (inactive)
- GI50 (MOLT-4): > 10 µM (inactive)
- GI50 (OVCAR-4): > 100 µM (inactive)
- GI50 (M14): 17.7 µM (inactive)
- GI50 (SK-OV-3): > 100 µM (inactive)
- GI50 (COLO 205): 19.5 µM (inactive)
- GI50 (KM-20L2): 20.1 µM (inactive)
- GI50 (HCT-116): > 10 µM (inactive)
- GI50 (ACHN): 96.4 µM (inactive)
- GI50 (HOP-92): 24 µM (inactive)
- GI50 (SF-295): 18.4 µM (inactive)
- GI50 (K562): 15.2 µM (inactive)
- GI50 (NCI-H460): 37.6 µM (inactive)
- GI50 (IGROV-1): 75.2 µM (inactive)
- GI50 (CCRF-CEM): 18.8 µM (inactive)
- GI50 (A498): 36 µM (inactive)
- GI50 (KM12): 33.5 µM (inactive)
- GI50 (SF-539): 0.0134 µM (active)
- GI50 (SNB-75): 33 µM (inactive)
- GI50 (U-251): 31.6 µM (inactive)
- GI50 (Malme-3M): 18.5 µM (inactive)
- GI50 (LXFL 529): 16.4 µM (inactive)
- GI50 (NCI-H522): 22.3 µM (inactive)
- GI50 (SK-MEL-28): 17.9 µM (inactive)
- GI50 (OVCAR-3): 56.8 µM (inactive)
- GI50 (RXF 393): 30.5 µM (inactive)
- GI50 (HT-29): 18.4 µM (inactive)
